Test results: patent publication US20230184756A1, “BIOMATERIALS” (INSTITUTO DE MEDICINA MOLECULAR JOÃO LOBO ANTUNES, priority 2020, published 2023)
“Also recorded” adds a separate entry of the source. Peptide text beside a SMILES is read from it.

Experiments:
[1] = target: streptavidin (Streptomyces avidinii, UniProt P22629); assay: Binding to free streptavidin by intrinsic tryptophan fluorescence; settings: 0.8 μM streptavidin
Excerpt: In terms of secondary structure, evaluated via Fourier Transform Infra Red (FITR) spectroscopy (FIG. 5b), the observations echo the results obtained with (non-biotinylated) STVIIE fibrils (confront with FIG. 3f). Addition, via a PEG9 linker, of a biotin moiety to STVIIE N-terminus results in biotin functionalized STVIIE amyloid fibrils. These fibrils show both the […] and the antiparallel cross β-sheet peaks, being quite similar to the spectra obtained with free (non-biotinylated) STVIIE. Then, the activity of the bioactive molecule (biotin) attached to the fibrils was tested, namely the ability to bind its target bridge element molecule (streptavidin), when free in solution (FIG. 5c-g). […] Briefly, the fluorescence intensity spectra of 0.8 μM streptavidin in solution, treated with buffer (FIG. 5c, leftmost graph), free biotin (FIG. 5c, second graph from the left), non-biotinylated free amyloid peptide (FIG. 5c, third from the left) or biotinylated amyloidogenic peptide fibrils (FIG. 5c, rightmost graph) were compared. A drop on the fluorescence signal (decreased quantum yield) accompanied by peak shifting towards the left (blue shift) indicates streptavidin binding to biotin (FIG. 5c). […] The addition of biotinylated peptide to streptavidin produces a similar blue shift of the fluorescence emission maximum (from 340 to 330 nm), as observed when free biotin is added. […]

[2] = system: Human H4 neuroglioma cells; assay: LDH release cytotoxicity assay
[3] = FTIR spectroscopy of secondary structure; type: physicochemical; settings: followed for 6 hours
Description: Following previous approaches^11,54, peptide samples were applied to the FTIR sample holder at 298.15 K. InfraRed spectra were recorded on a Bruker Tensor 27 infrared spectrophotometer (Bruker Optik GmbH, Ettlingen, Germany) equipped with a Bio-ATR II accessory. The spectrophotometer was continuously purged with dried air. Spectra were recorded at a spectral resolution of 4 cm^−1 and 120 accumulations were performed per measurement. The final spectra were corrected to the baseline (the final incubation buffer) and rescaled in the amide I area (˜1600 to ˜1700 cm^−1).
The formation of aggregates by STVIIE quickly leads the larger elements to deposit from solution. This hinders circular dichroism studies of STVIIE secondary structure. For this reason Fourier transform infra-red (FTIR) spectroscopy was used instead (FIG. 3f-g). The changes in secondary structure content were followed for 6 hours (FIG. 3f). Then, after 6 hours, when amyloid structures are readily visible (FIG. 3a), the experiment was terminated. This time frame is also chosen given that for nanotechnology applications short incubation periods can be necessary and/or preferable. The peptides spectra are consistent with antiparallel β-sheet/aggregated strands (1675-1695 cm^−1) and β-sheet (1625-1640 cm^−1) secondary structure being present (FIG. 3f). […]

[4] = Sample preparation: highest concentration at which the peptide fully dissolves; type: physicochemical; settings: for highest final concentration that they were able to be fully dissolved: 50 mM Tris-HCl pH 7.5, 5 mM EDTA buffer, room temperature
Description: STVIIE, GNNQQNY, QVQIIE and ISFLIF were prepared at the highest final concentration that they were able to be fully dissolved, respectively 1 mg/mL (STVIIE and GNNQQNY), 0.55 mg/mL (QVQIIE) and 0.1 mg/mL (ISFLIF). For all peptide samples the final incubation buffer was 50 mM Tris-HCl pH 7.5, 5 mM EDTA buffer. Briefly, after weighing the peptide, half of the final volume of H2O ultrapure was added. A short vortex of approximately 1500 rpm and 30 seconds and an ultrasound bath of 280 seconds in water/ice were performed two times. The other half of the final volume was then added, containing 100 mM Tris-HCl pH 7.5, 10 mM EDTA buffer was added, with the peptide samples being therefore in the final incubation buffer. Before incubation, two other cycles of vortex and ultrasound bath were performed. The final peptide solution sample was incubated at room temperature.

[5] = Atomic force microscopy of amyloid fibril formation, morphology and dimensions; type: physicochemical; settings: AFM, 2 weeks incubation at physiologic pH
Excerpt: According to experimental procedures at the host lab^57-59, the samples were placed in poly-1-lysine slides and dried using a vacuum chamber. When fully dried, the samples were rinsed with ultra-pure water and dried with a gentle N2 air flux. A NanoWizard II atomic force microscope (JPK Instruments, Berlin, Germany), mounted on the top of an Axiovert 200 inverted optical microscope (Zeiss, Jena, Germany), was used for the microscopic experiments. The AFM head is equipped with a 5.85-μm z-range linearized piezoelectric scanner and an infrared laser. For the acquisition of the different AFM images, it was used a ACL-50 tip (Applied NanoStructures, Inc., California, USA) with a spring constant between 20-95 N/m and a frequency between 145-230 kHz. Amyloid fibrils were acquired in intermittent (air) mode with a setpoint of between 0.4-0.5 V, a line rate of 0.7-0.8 Hz, an IGain of 20-50 Hz and a PGain of 0.001-0.004. The images acquired were treated afterwards with the JPKSPM Data Processing (JPK Instruments, Berlin, Germany).
The most promising amyloidogenic peptide is typically selected. For this purpose, atomic force microscopy (AFM) was employed. AFM is a technique that can be very useful in the acquisition of surface images with high resolution and sensibility, being therefore suitable for such studies of amyloid fibrils and employed in this analysis. […] Regarding GNNQQNY (FIG. 2, first row from the top), at the start of incubation there are no visible structures. At the end of the incubation period tested (2 weeks), heterogeneous structures are visible. […] In contrast, QVQIIE, ISFLIF and STVIIE peptides show amyloid morphologies at the end of the incubation period tested (FIG. 2). […] This is consistent with the β-sheet content of QVQIIE and ISFLIF at the end of the incubation period, measured via Fourier transform infrared spectroscopy (FIG. 12) and binding profile to Congo Red (FIG. 13). […] As for STVIIE, it forms clear fibril structures in the conditions tested. […]

Compound: O=C(O)CCCC[C@@H]1SC[C@@H]2NC(=O)N[C@@H]21 [biotin, 5-[(3aS,4S,6aR)-2-oxohexahydro-1H-thieno[3,4-d]imidazol-4-yl]pentanoic acid]
- concentration at which the peak shift achieves saturation [1]: ~4 µM
- blue shift of streptavidin fluorescence emission peak maximum ([1]; peptide and/or biotin 0 to 13.6 μM): 10 nm

Compound: CC[C@H](C)[C@H](NC(=O)[C@@H](NC(=O)[C@@H](NC(=O)[C@@H](N)CO)[C@@H](C)O)C(C)C)C(=O)N[C@H](C(=O)N[C@@H](CCC(=O)O)C(=O)O)[C@@H](C)CC [STVIIE] (H-STVIIE-OH; N-terminus and C-terminus assumed)
- toxicity to cells (LDH release) ([2]; fibrils at 0.2, 2 and 20 μM, 6 and 24 hours): not toxic; also recorded: not cytotoxic
- time for relative ratio of β-sheet secondary structure to stabilize [3]: less than 3 hours

Compound: CC[C@H](C)[C@H](N)C(=O)N[C@@H](CO)C(=O)N[C@@H](Cc1ccccc1)C(=O)N[C@@H](CC(C)C)C(=O)N[C@H](C(=O)N[C@@H](Cc1ccccc1)C(=O)O)[C@@H](C)CC [ISFLIF] (H-ISFLIF-OH; N-terminus and C-terminus assumed)
- solubility in physiological conditions ([4]; physiological conditions): difficult to dissolve at high concentrations

Compound: Triton [reference compound]
- cell death ([2]; 0.2, 2.0 and 20 μM, 6 to 24 hours, buffer control 10-15%): 100%

Compound: Aβ(1-42): Amyloid β peptide (involved in Alzheimer's disease), positive control of fibrillization [reference compound]
- morphology at end of incubation [5]: form typical amyloid fibrils

Compound: GNNQQNY [short amyloidogenic peptide]
- highest final concentration that they were able to be fully dissolved [4]: 1 mg/mL
- morphology at end of incubation [5]: not consistent with the well-defined amyloid fibril morphology

Compound: QVQIIE
- highest final concentration that they were able to be fully dissolved [4]: 0.55 mg/mL
- morphology at end of incubation [5]: amyloid-like gel structure
